Data reported in patent US9403806B1, “Cognition enhancing compounds and compositions, methods of making, and methods of treating” (NeuroSolis, Inc., priority 2010, dated 2016).
Where two headings read alike, the source gives them in different places.

Key:
CD-I mice = assay: Apomorphine induced climbing model of psychosis; type: in vivo; conditions: APO 2 mg/kg alone
Method: As described in Costall et. al. European Journal of Pharmacology 1978, 50, 39. individual CD-I mice, 1-2 months old, were placed in a cylindrical wire mesh cage (13.2 cm high×13.2 cm diameter) constructed of steel wire 1 mm thick spaced at 1.2 cm^2. Cylinders were placed in a standard OptiMICE mouse cage (29×32×9×29 cm and 14 cm high) with adequate wood chip bedding provided. Observations of climbing (defined as 3 or more paws of the ground) were carried out every 5 minutes at a duration of 1 minute for […]. Animals were injected subcutaneously under isoflurane anesthesia with test compounds, reference compounds, which included clozapine, haloperidol, olanzapine and xanomeline, or PBS as a control. This was followed 5 minutes later by 2 mg/kg apomorphine hydrochloride. All drugs were dissolved in PBS or a mixture of (by volume) 96% PBS and 4% hydroxypropyl-beta-cyclodextrin, and dosed at a rate of 5 ml per kilogram of body weight. Following injections, animals were replaced in the mesh cages and observed for climbing (defined as 3 or more paws off the ground) every 5 minutes for 1 minute for 60 minutes after dosing.

[1] = target: T1, human muscarinic M1 receptors (Homo sapiens, UniProt P11229); type: cell-based; conditions: for huM1/A9L Smax: percentage of maximal stimulation by carbachol; for huM1/A9L Potency relative to carbachol: relative to the potency of carbachol at its EC50
T1 construct: host or cells: A9L cells
T1 sequence (P11229 1-460): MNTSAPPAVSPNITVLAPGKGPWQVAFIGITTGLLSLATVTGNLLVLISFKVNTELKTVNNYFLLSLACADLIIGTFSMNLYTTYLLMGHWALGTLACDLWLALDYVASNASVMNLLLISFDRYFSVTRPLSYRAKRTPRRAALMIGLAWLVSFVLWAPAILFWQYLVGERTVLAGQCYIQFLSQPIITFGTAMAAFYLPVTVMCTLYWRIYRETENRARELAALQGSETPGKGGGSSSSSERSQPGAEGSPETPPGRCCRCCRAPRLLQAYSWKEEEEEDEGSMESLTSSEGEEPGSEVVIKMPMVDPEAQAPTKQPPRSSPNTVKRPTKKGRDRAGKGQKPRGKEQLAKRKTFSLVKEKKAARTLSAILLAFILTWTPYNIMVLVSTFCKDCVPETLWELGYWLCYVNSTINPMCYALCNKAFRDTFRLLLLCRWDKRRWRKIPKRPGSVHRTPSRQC

[2] = target: T2, human muscarinic M3 receptors (Homo sapiens, UniProt P20309); type: cell-based; conditions: for huM3/A9L Smax: percentage of maximal stimulation by carbachol; for huM3/A9L Potency relative to carbachol: relative to the potency of carbachol at its EC50
T2 construct: host or cells: A9L cells

[3] = system: muscarinic M1 receptors in the hippocampus; assay: In vivo inositol phosphate increase in hippocampus, Example 44; set-up: species or system Long Evans Hooded rats; conditions: rat, 3 mg/kg sc
Method: (§1) In lithium chloride-treated laboratory rodents, engagement of muscarinic M1 receptors in the hippocampus may usefully be evaluated in vivo by measuring the increase in the tissue of inositol phosphate (Bymaster F P et al Brain Res 795 (1998) 179-190). This may also be extended to measure engagement of muscaric M3 receptors in the salivary glands.
(§2) Experimental compounds were administered subcutaneously at 3 mg/kg using standard techniques to Long Evans Hooded rats weighing 225 to 350 g, and which had been pretreated with a subcutaneous injection of lithium chloride at a suitable dose between 3 and 5 mmole/kg. At suitable times the animals were briefly anesthetized using 5% isoflurane and euthanized by decapitation. The brains and submaxillary salivary glands were rapidly dissected out, and the hippocampuses were dissected from the brains. The dissected tissues were homogenized in a suitable volume of ice-cold phosphate-buffered saline containing 10 mM lithium chloride (pH=7.4) using a tissue homogenizer, and used immediately or frozen in aliquots at −80° C. for future use. The concentration of inositol-1-phosphate was determined in the homogenates using the […] IP-One Terbium TR-FRET assay kit (Cisbio Bioassays, cat. #62IPAPEJ) according to the manufacturer's instructions.

[4] = system: muscarinic M3 receptors in the salivary glands; assay: In vivo inositol phosphate increase in salivary glands, Example 44; set-up: species or system Long Evans Hooded rats; conditions: rat, 3 mg/kg sc
Method: as §1, §2

[5] = system: pooled male human liver microsomes; assay: Metabolism in human liver microsomes, Example 45; type: in vitro ADME
Method: Aliquots were removed every 2 hours, and 1% formic acid was added to halt the reaction. Samples were centrifuged, filtered through 0.2 micron spinfilter, and the amount of each compound in the supernatants was quantitated using LC/MS/MS as follows. The ultra-filtrates were subjected to reverse-phase liquid chromatography using a 150×2.1 mm Agilent C8-reverse phase column on a Shimadzu Prominence LC, eluting the compound with a gradient of 2%-50% acetonitrile+0.1% formic acid over 5 minutes. The concentration of the compound in the column effluent was measured using an Applied Biosystems API-3200 triple quadrupole mass spectrometer equipped with a Turbo V source (electrospray sample injection) system. The counts of the characteristic parent ions of the protonated compound and product ions were converted to concentration by comparison with a standard calibration curve. The parent/daughter ion pairs that were monitored for each compound were: 166.0/82.0 (105), 166.0/82.0 (106b), 166.0/82.0 (106a), 169.0/83.0 (136), 168.2/83.0 (121), 168.1/83.0 (122a), 168.1/83.0 (122b), 170.2/83.0 (134), 168.2/84.1 (135), 168.1/84.1 (137) and 169.2/82.1 (138).

in vitro = in vitro ADME; conditions: PAMPA, pH 7.4, 400 μM, pH 7.4, 24 hours, room temperature; read-out: PAMPA Permeability Coefficient (×10^6)
Method: PAMPA is a useful in vitro model for predicting the passive diffusion of drugs across the blood-brain barrier (Li, D et al Eur jour of Med Chem 38 (2003) 223-232).
Compounds were diluted in a 100 mM phosphate buffer (pH 7.4) to a concentration of 400 μM and the stock solutions were placed into a 96-well filter plate (Millipore, #MAIPN4510) pre-wetted with 20 mg/mL porcine brain polar lipid extract in 100% dodecane (Avanti, #131022) and placed into a 96-well acceptor plate (Millipore, #MSSACCEPTOR) whose wells were filled with the same phosphate buffer as in the filter plate. This assembly was incubated at room temperature for 24 hours. The experiment was halted by separating the filter plate from the acceptor plate. Aliquots were removed from the filter plate wells, acceptor plate wells, and stock solutions, and 1% trifluoroacetic acid was added to each. All solutions were measured by LC/UV, and passive diffusion rates were calculated using the peak area values (Avdeef, Alex. 2003. Page 147 in Absorption and Drug Development. Hoboken, N.J.: John Wiley & Sons).

[6] = Blood and brain concentrations (rats), tail vein injection; type: in vivo, Long-Evans Hooded rats; conditions: male, Long-Evans Hooded, rat, 3 mg/kg; for Kp at 1 h: brain and plasma, intravenous, Table 114, read-out: Brain/Plasma Ratio; for concentration at 1 h: in vivo, 3 mg/kg tail vein injection
Method: Long-Evans Hooded rats (Charles River: male, 230-300 g) were dosed with solutions of test compounds in PBS by tail vein injection. The dose for all compounds was 3 mg/kg. At one hour, the animals were anesthetized with isoflurane, and then euthanized by decapitation. Trunk blood was collected into a 1.5 mL microcentrifuge tube containing 15 U Heparin, and the plasma recovered after centrifugation. Brains were dissected, weighed, immediately chilled to 4° C., and homogenized using a PowerGen 125 homogenizer in five volumes of ice-cold 2% formic acid. Proteins were precipitated from plasma and brain homogenate with nine and five volumes respectively of ice-cold 2% formic acid and clarified by centrifugation. The supernatant was ultra-filtered by centrifugation through a 3K MWCO spin column (Pall Life Sciences), following the manufacturer's instructions. The concentration of compound in the ultra-filtrate was subjected to reverse-phase liquid chromatography using a 150×2.1 mm Agent C8 reverse-phase column on a Shimadzu Prominence LC, eluting the compounds with a gradient of 2% to 50% of acetonitrile+0.1% formic acid for all compounds. The concentration of the compound in the column effluent was measured using an Applied Biosystems API-3200 triple quadrupole mass spectrometer equipped with an electrospray sample injection system. The counts of the characteristic parent and product ions of each test compound were converted to concentration units by comparison with a standard curve.

[7] = as above; type: in vivo, Long-Evans Hooded rats; conditions: male, Long-Evans Hooded, rat, plasma, iv, 3 mg/kg, 3 mg/kg tail vein injection, read-out: Plasma Terminal Half-life (converted)
[8] = read-out: Brain Concentration at 1 hr
[9] = read-out: Plasma Concentration at 1 hr

T2 sequence (P20309 whole entry): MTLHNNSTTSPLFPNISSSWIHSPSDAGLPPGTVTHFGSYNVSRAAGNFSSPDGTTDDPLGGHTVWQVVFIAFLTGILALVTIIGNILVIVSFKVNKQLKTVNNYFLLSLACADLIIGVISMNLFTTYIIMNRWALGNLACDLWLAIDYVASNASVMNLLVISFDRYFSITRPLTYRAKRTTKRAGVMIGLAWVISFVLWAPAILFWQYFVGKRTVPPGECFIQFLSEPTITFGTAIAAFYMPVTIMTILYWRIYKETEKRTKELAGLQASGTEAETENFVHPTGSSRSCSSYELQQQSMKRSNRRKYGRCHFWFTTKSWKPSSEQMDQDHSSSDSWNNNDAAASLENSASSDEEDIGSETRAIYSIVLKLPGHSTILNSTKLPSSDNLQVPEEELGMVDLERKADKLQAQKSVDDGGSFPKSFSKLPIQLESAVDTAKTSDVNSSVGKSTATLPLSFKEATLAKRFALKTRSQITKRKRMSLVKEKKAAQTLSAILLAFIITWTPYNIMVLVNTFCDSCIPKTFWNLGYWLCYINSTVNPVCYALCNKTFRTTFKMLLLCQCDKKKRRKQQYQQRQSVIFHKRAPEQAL

Question: Which “Climbing Mean” value (CD-I mice) does the source give for `CN1CCc2cccc3c2[C@H]1Cc1ccc(O)c(O)c1-3` [APO, reference compound] here?
Answer: 51.7 s

Question: With `Cc1noc([C@@]23CNC[C@@H]2C3)n1` [Compound 106a, 5-((1R,5R)-3-Azabicyclo[3.1.0]hexan-1-yl)-3-methyl-1,2,4-oxadiazole] as the molecule, how does the “huM1/A9L Smax” value [1] read?
Answer: 80%

Question: What about the “huM1/A9L Potency relative to carbachol” value [1] of the same molecule?
Answer: 1.72

Question: What about the “huM3/A9L Smax” value [2] of the same molecule?
Answer: 45%

Question: What about the “huM3/A9L Potency relative to carbachol” value [2] of the same molecule?
Answer: 0.46

Question: And the “Increase in Inositol Phosphate in Hippocampus/Control” value (shortened to “Increase … in Hippocampus/Control”) ([3]; 5 mmole/kg LiCl)?
Answer: 376%

Question: And the “Increase in Inositol Phosphate in Salivary Gland/Control” value (from here on “Increase … in Salivary Gland/Control”) ([4]; 5 mmole/kg LiCl)?
Answer: 191%

Question: What about the “Loss at 6 hrs (%)” value [5] of the same molecule?
Answer: 50%

Question: What about the Papp at 24 h, 400 µM (in vitro) of the same molecule?
Answer: 4.25 ×10⁻⁶ cm/s

Question: And the Kp at 1 h [6]?
Answer: 0.39

Question: What about the concentration at 1 h [6, 8] of the same molecule?
Answer: 3.5 µM

Question: What about the concentration at 1 h [6, 9] of the same molecule?
Answer: 5.6 µM

Question: And the half-life [7]?
Answer: 0.7 h

Question: For `[2H]C1([2H])NC[C@]2(c3nc(C)no3)C[C@H]12` [Compound 122b, 5-((1S,5S)-4,4-d2-3-azabicyclo[3.1.0]hexan-1-yl)-3-methyl-1,2,4-oxadiazole], which “huM1/A9L Smax” value [1] is on record?
Answer: 47%

Question: And the “huM1/A9L Potency relative to carbachol” value [1]?
Answer: 0.54

Question: What about the “huM3/A9L Smax” value [2] of the same molecule?
Answer: 28%

Question: What about the “huM3/A9L Potency relative to carbachol” value [2] of the same molecule?
Answer: 0.50

Question: What about the “Increase … in Hippocampus/Control” value ([3]; 3 mmole/kg LiCl) of the same molecule?
Answer: 150%

Question: And the “Increase … in Salivary Gland/Control” value ([4]; 3 mmole/kg LiCl)?
Answer: 163%

Question: What about the “Loss at 6 hrs (%)” value [5] of the same molecule?
Answer: 13%

Question: What about the Papp at 24 h, 400 µM (in vitro) of the same molecule?
Answer: 3.7 ×10⁻⁶ cm/s

Question: And the Kp at 1 h [6]?
Answer: 0.58

Question: And the concentration at 1 h [6, 8]?
Answer: 5.1 µM

Question: And the concentration at 1 h [6, 9]?
Answer: 8.8 µM

Question: What about the half-life [7] of the same molecule?
Answer: 1.3 h

Question: Which “huM1/A9L Smax” value [1] does the source give for `Cc1noc([C@]23CNC[C@H]2C3)n1` [Compound 106b, 5-((1S,5S)-3-Azabicyclo[3.1.0]hexan-1-yl)-3-methyl-1,2,4-oxadiazole] here?
Answer: 40%

Question: What about the “huM1/A9L Potency relative to carbachol” value [1] of the same molecule?
Answer: 0.51

Question: And the “huM3/A9L Smax” value [2]?
Answer: 42%

Question: What about the “huM3/A9L Potency relative to carbachol” value [2] of the same molecule?
Answer: 0.27

Question: What about the “Increase … in Hippocampus/Control” value ([3]; 5 mmole/kg LiCl) of the same molecule?
Answer: 141%

Question: And the “Increase … in Salivary Gland/Control” value ([4]; 5 mmole/kg LiCl)?
Answer: 104%

Question: What about the “Loss at 6 hrs (%)” value [5] of the same molecule?
Answer: 29%

Question: What about the Papp at 24 h, 400 µM (in vitro) of the same molecule?
Answer: 4.37 ×10⁻⁶ cm/s

Question: What about the Kp at 1 h [6] of the same molecule?
Answer: 0.6

Question: And the concentration at 1 h [6, 8]?
Answer: 5.5 µM

Question: What about the concentration at 1 h [6, 9] of the same molecule?
Answer: 9.5 µM

Question: What about the half-life [7] of the same molecule?
Answer: 1.1 h

Question: Which “huM1/A9L Smax” value [1] does the source give for `[2H]C1([2H])NCC2(c3nc(C)no3)CC12` (racemic) [Compound 121, 5-(4,4-d2-3-Azabicyclo[3.1.0]hexan-1-yl)-3-methyl-1,2,4-oxadiazole] here?
Answer: 73%

Question: And the “huM3/A9L Smax” value [2]?
Answer: 37%

Question: What about the “Increase … in Hippocampus/Control” value ([3]; 5 mmole/kg LiCl) of the same molecule?
Answer: 795%

Question: What about the “Increase … in Salivary Gland/Control” value ([4]; 5 mmole/kg LiCl) of the same molecule?
Answer: 239%

Question: And the “Loss at 6 hrs (%)” value [5]?
Answer: 13%

Question: What about the Papp at 24 h, 400 µM (in vitro) of the same molecule?
Answer: 3.78 ×10⁻⁶ cm/s

Question: And the Kp at 1 h [6]?
Answer: 0.51

Question: And the concentration at 1 h [6, 8]?
Answer: 8.6 µM

Question: And the concentration at 1 h [6, 9]?
Answer: 16.8 µM

Question: What about the half-life [7] of the same molecule?
Answer: 1.26 h
